Data on 27 compounds can be found in patent publication US9637491B2, “Pyrazolo[4,3-D]pyrimidines as kinase inhibitors” (Origenis GmbH, priority 2012, dated 2017).

The assay concerns the target T1, SYK kinase (Homo sapiens, UniProt P43405).
T1 construct: purchased Invitrogen, Carlsbad
Description: SYK assay (OMNIA Kinase Assay, Invitrogen). Format: biochemical. Particulars: SYK Activities; 1 mM ATP, 10 μM Omnia Peptide Substrate Tyr 7, 30° C. Here is the method:
In the assay OMNIA® KINASE ASSAY by Invitrogen Corporation (Carlsbad) the effect of invention of a compound on the phosphorylation is determined by measurement of fluorescence intensity of a chelation-enhanced fluorophore called SOX. Upon phosphorylation of the peptide by the kinase of interest, Mg2+ is chelated to form a bridge between the SOX moiety and the phosphate group that is transferred to the specific tyrosine on the peptide. The fluorescence intensity is directly proportional to the amount of peptide phosphorylation.
To the wells of an 384 well small volume plate (Greiner, Frickenhausen) are added (i) the compound under test in 5% DMSO/distilled water (2 μl), (ii) 16 μl of the master mix containing ATP, DTT, Kinase Reaction Buffer, Omina Peptide Substrate Tyr 7 resulting in a final concentration of 1 mM ATP, 0.2 mM DTT and 10 μM Peptide Substrate. The Master Mix and the assay plate was incubated to reaction temperature before the measurement (30° C.). The reaction was started with addition of (iii) 2 μl 4 μg/ml SYK kinase (Invitrogen, Carlsbad). During measurement fluorescence intensitiy readings were collected using a TECAN M1000 at a wavelength of λex 360/λem 485 nm every 30 s for 30 minutes. The reaction velocity was plotted versus the inhibitor concentration to determine the IC50 using XLFit 5.0 (IDBS, Guildford) to fit to a sigmoidal dose response curve.
By IC50 is commonly meant the concentration needed to halve the response being measured. For `COc1ccc(Nc2nc(-c3ccccc3NS(C)(=O)=O)nc3cn[nH]c23)cc1OC` [Example 2, N-(2-(7-((3,4-dimethoxyphenyl)amino)-1H-pyrazolo[4,3-d]pyrimidin-5-yl)phenyl)methanesulfonamide], the concentration for half-maximal inhibition (IC50) lay within 100 to 1000 nM.
In the case of `COc1ccc(Nc2nc(-c3ccc(C)s3)nc3cn[nH]c23)cc1OC` [Example 8, N-(3,4-dimethoxyphenyl)-5-(5-methylthiophen-2-yl)-1H-pyrazolo[4,3-d]pyrimidin-7-amine], the half-maximal inhibitory concentration (IC50) was 100 to 1000 nM.
`Cc1ccc(-c2nc(Nc3ccc(N4CCOCC4)cc3)c3[nH]ncc3n2)s1` [Example 9, 5-(5-methylthiophen-2-yl)-N-(4-morpholinophenyl)-1H-pyrazolo[4,3-d]pyrimidin-7-amine] yielded a concentration for half-maximal inhibition (IC50) of 10 to 100 nM.
For `CC(C)(C)N1CCN(c2ccc(Nc3nc(-c4c(F)cccc4F)nc4cn[nH]c34)cc2)CC1` [Example 10, N-(4-(4-(tert-butyl)piperazin-1-yl)phenyl)-5-(2,6-difluorophenyl)-1H-pyrazolo[4,3-d]pyrimidin-7-amine] the value was 10 to 100 nM.
`Fc1cc(Nc2nc(-c3c(F)cccc3F)nc3cn[nH]c23)ccc1N1CCOCC1` [Example 11, 5-(2,6-difluorophenyl)-N-(3-fluoro-4-morpholinophenyl)-1H-pyrazolo[4,3-d]pyrimidin-7-amine] had a 50% inhibitory concentration (IC50) of 100 to 1000 nM.
Compound `COc1cc(Nc2nc(-c3c(F)cccc3F)nc3cn[nH]c23)ccc1N1CCOCC1` [Example 12, 5-(2,6-difluorophenyl)-N-(3-methoxy-4-morpholinophenyl)-1H-pyrazolo[4,3-d]pyrimidin-7-amine] registered an IC50 below 10 nM.
`CC(=O)N1CCN(c2ccc(Nc3nc(-c4c(F)cccc4F)nc4cn[nH]c34)cc2)CC1` [Example 13, 1-(4-(4-((5-(2,6-difluorophenyl)-1H-pyrazolo[4,3-d]pyrimidin-7-yl)amino)phenyl)piperazin-1-yl)ethan-1-one] registered an IC50 of 100 to 1000 nM.
As to `CC(=O)N1CCN(c2ccc(Nc3nc(-c4cccc(N)c4)nc4cn[nH]c34)cc2)CC1` [Example 14, 1-(4-(4-((5-(3-aminophenyl)-1H-pyrazolo[4,3-d]pyrimidin-7-yl)amino)phenyl)piperazin-1-yl)ethan-1-one], the concentration for half-maximal inhibition (IC50) lay within 100 to 1000 nM.
`O=S1(=O)CCc2ccc(Nc3nc(-c4cccs4)nc4cn[nH]c34)cc21` [Example 17, 6-((5-(thiophen-2-yl)-1H-pyrazolo[4,3-d]pyrimidin-7-yl)amino)-2,3-dihydrobenzo[b]thiophene 1,1-dioxide] registered an IC50 of 100 to 1000 nM.
Turning to `c1cc(N2CCOCC2)ccc1Nc1nc(C2CC2)nc2cn[nH]c12` [Example 18, 5-cyclopropyl-N-(4-morpholinophenyl)-1H-pyrazolo[4,3-d]pyrimidin-7-amine], the IC50 is below 10 nM.
On to `COc1ccc(Nc2nc(C3CC3)nc3cn[nH]c23)cc1OC` [Example 19, 5-cyclopropyl-N-(3,4-dimethoxyphenyl)-1H-pyrazolo[4,3-d]pyrimidin-7-amine], for which the IC50 is 10 to 100 nM.
Under `O=C1COc2ccc(Nc3nc(C4CC4)nc4cn[nH]c34)cc2N1` [Example 21, 6-((5-cyclopropyl-1H-pyrazolo[4,3-d]pyrimidin-7-yl)amino)-2H-benzo[b][1,4]oxazin-3(4H)-one] stands 10 to 100 nM.
Consider `O=C1CCc2ccc(Nc3nc(C4CC4)nc4cn[nH]c34)cc2N1` [Example 22, 7-((5-cyclopropyl-1H-pyrazolo[4,3-d]pyrimidin-7-yl)amino)-3,4-dihydroquinolin-2(1H)-one], for which the IC50 is below 10 nM.
For `CC(C)(C)N1CCN(c2ccc(Nc3nc(-c4ccccc4F)nc4cn[nH]c34)cc2)CC1` [Example 23, N-(4-(4-(tert-butyl)piperazin-1-yl)phenyl)-5-(2-fluorophenyl)-1H-pyrazolo[4,3-d]pyrimidin-7-amine], the IC50 was 100 to 1000 nM.
Take `Fc1ccccc1-c1nc(Nc2ccc(N3CCOCC3)c(F)c2)c2[nH]ncc2n1` [Example 24, N-(3-fluoro-4-morpholinophenyl)-5-(2-fluorophenyl)-1H-pyrazolo[4,3-d]pyrimidin-7-amine]: the half-inhibitory concentration (IC50) is 100 to 1000 nM.
For `COc1cc(Nc2nc(-c3ccccc3F)nc3cn[nH]c23)ccc1N1CCOCC1` [Example 25, 5-(2-fluorophenyl)-N-(3-methoxy-4-morpholinophenyl)-1H-pyrazolo[4,3-d]pyrimidin-7-amine] the value was 10 to 100 nM; for `CC(=O)N1CCN(c2ccc(Nc3nc(-c4ccccc4F)nc4cn[nH]c34)cc2)CC1` [Example 26, 1-(4-(4-((5-(2-fluorophenyl)-1H-pyrazolo[4,3-d]pyrimidin-7-yl)amino)phenyl)piperazin-1-yl)ethan-1-one], 100 to 1000 nM; for `CC(C)(C#N)c1ccc(Nc2nc(-c3c(F)cccc3F)nc3cn[nH]c23)cc1` [Example 28, 2-(4-((5-(2,6-difluorophenyl)-1H-pyrazolo[4,3-d]pyrimidin-7-yl)amino)phenyl)-2-methylpropanenitrile], 100 to 1000 nM.
Under `CN1CCN(C2CCN(c3ccc(Nc4nc(-c5ccccc5NS(C)(=O)=O)nc5cn[nH]c45)cc3)CC2)CC1` [Example 29, N-(2-(7-((4-(4-(4-methylpiperazin-1-yl)piperidin-1-yl)phenyl)amino)-1H-pyrazolo[4,3-d]pyrimidin-5-yl)phenyl)methanesulfonamide] stands 10 to 100 nM.
For `CC(=O)N1CCN(c2ccc(Nc3nc(C4CC4)nc4cn[nH]c34)cc2)CC1` [Example 33, 1-(4-(4-((5-cyclopropyl-1H-pyrazolo[4,3-d]pyrimidin-7-yl)amino)phenyl)piperazin-1-yl)ethan-1-one] the value was 100 to 1000 nM; for `Fc1cc(Nc2nc(C3CC3)nc3cn[nH]c23)ccc1N1CCOCC1` [Example 34, 5-cyclopropyl-N-(3-fluoro-4-morpholinophenyl)-1H-pyrazolo[4,3-d]pyrimidin-7-amine], 100 to 1000 nM.
The compound `COc1cc(Nc2nc(C3CC3)nc3cn[nH]c23)ccc1N1CCOCC1` [Example 35, 5-cyclopropyl-N-(3-methoxy-4-morpholinophenyl)-1H-pyrazolo[4,3-d]pyrimidin-7-amine] yielded an IC50 below 10 nM.
`COc1cc(Nc2nc(-c3cccs3)nc3cn[nH]c23)ccc1N1CCOCC1` [Example 37, N-(3-methoxy-4-morpholinophenyl)-5-(thiophen-2-yl)-1H-pyrazolo[4,3-d]pyrimidin-7-amine] showed an IC50 of 100 to 1000 nM.
As for `O=C1OCCN1c1ccc(Nc2nc(-c3cccs3)nc3cn[nH]c23)cc1` [Example 38], the IC50 was in the range of 100 to 1000 nM.
For `CC(C)(C)N1CCN(c2ccc(Nc3nc(-c4cccc(NS(C)(=O)=O)c4)nc4cn[nH]c34)cc2)CC1` [Example 39] the value was 100 to 1000 nM; for `COc1cc(Nc2nc(-c3cccc(NS(C)(=O)=O)c3)nc3cn[nH]c23)ccc1N1CCOCC1` [Example 41, N-(3-(7-((3-methoxy-4-morpholinophenyl)amino)-1H-pyrazolo[4,3-d]pyrimidin-5-yl)phenyl)methanesulfonamide], 100 to 1000 nM.
The compound `CC(C)(C)N1CCN(c2ccc(Nc3nc(-c4ccc5cn[nH]c5c4)nc4cn[nH]c34)cc2)CC1` [Example 45, N-(4-(4-(tert-butyl)piperazin-1-yl)phenyl)-5-(1H-indazol-6-yl)-1H-pyrazolo[4,3-d]pyrimidin-7-amine] displayed a half-inhibitory concentration (IC50) below 10 nM.
